In patent US11834470B2, “4-thioribose NAD analogues and methods of synthesizing and using the same” (University of Southern California, priority 2018, dated 2023):

How the values were obtained:
Type in all cases: biochemical
[1] = target: T1, human CD38 (Homo sapiens, UniProt P28907, N100D/N164A/N209D/N219D); assay: continuous fluorescence-based CD38 cyclase activity assay with NGD+ as substrate (cGDPR formation)
T1 construct: His6 (N, cleaved yes); TEV protease cleavage site (N, cleaved yes); made in house; host or cells: Expi293 cells, secreted, transient transfection (pFuse vector)
T1 sequence (P28907 45-300 N100D/N164A/N209D/N219D): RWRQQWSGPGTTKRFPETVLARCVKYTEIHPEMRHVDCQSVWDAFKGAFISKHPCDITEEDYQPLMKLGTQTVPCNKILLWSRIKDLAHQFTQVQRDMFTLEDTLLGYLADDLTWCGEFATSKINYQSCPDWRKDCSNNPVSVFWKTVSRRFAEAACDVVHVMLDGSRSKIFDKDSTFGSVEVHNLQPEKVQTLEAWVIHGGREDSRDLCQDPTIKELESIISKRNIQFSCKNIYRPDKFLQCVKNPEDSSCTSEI
Protocol: Recombinant human CD38 (8 nM) was incubated with 50 μM NGD^+ in the presence of varied concentrations of S-NAD^+. CD38 cyclase activities were monitored on the basis of the formation of fluorescent cGDPR as measured at 410 nm.
NGD^+ (Sigma-Aldrich, MO) was used as a substrate to determine ADP-ribosyl cyclase activity of purified CD38, because cyclic GDP-ribose (cGDPR) product is characterized by distinctive UV absorbance at 295 nm and fluorescence emission at 410 nm (excitation at 300 nm).^5 To characterize kinetic parameters, reactions were initiated by additions of recombinant CD38 (8.3 nM final) into assay wells with various concentrations of NGD^+ in 20 mM MES, pH 6.5, followed by monitoring the reactions through fluorescence at 410 nm (excitation at 300 nm) to determine initial reaction rates. Inhibition activities of S-NAD^+ were determined by carried out enzymatic formation of cyclic GDP-ribose in the presence of S-NAD^+. […] All reactions were carried out in black 96-well plates and the resulting fluorescence was measured using a BioTek Synergy H1 Hybrid Multi-Mode Microplate Reader (BioTek, VT) in the kinetic mode. The Km of NGD^+ for CD38 was calculated by fitting data with Michaelis-Menten function implemented in GraphPad Prism (La Jolla, CA). […]

[2] = target: T1, human CD38; assay: substrate activity with human CD38, overnight incubation, HPLC analysis; conditions: 1 mM compound, 13.4 nM recombinant human CD38, 50 mM MES pH 6.5, room temperature overnight
Protocol: FIGS. 15A-15D: Activity of NAD^+ and S-NAD^+ for human CD38. HPLC analysis of substrate activities of NAD^+ (FIG. 15A-15B) and S-NAD^+ (FIG. 15C-15D) with human CD38 as measured by UV absorbance at 260 nm. 1 mM NAD^+ or S-NAD^+ was incubated without and with CD38 at RT overnight, followed by HPLC analysis.
1 mM S-NAD^+ and NAD^+ in 50 mM MES, pH 6.5 were incubated with 13.4 nM recombinant human CD38 for overnight at room temperature, followed HPLC analysis of the reaction mixtures. HPLC analysis was performed with a semipreparative C18 Kinetex column (5 μm, 100 Å, 150×10.0 mm, from Phenomenex Inc, Torrance, CA) using following method: mobile phase A: 0.1% formic acid (aq); mobile phase B: 0.1% formic acid in methanol; flow rate: 2.0 ml/min; 0-2 min: 0-4% B, 2-4 min: 4-10% B; 4-6 min: 10-20% B; 6-9 min: 20% B; 9-12 min: 20-50% B; and 12-14 min: 50-0% B.

[3] = target: T2, Bovine glutamate dehydrogenase (GDH) (Bos taurus, UniProt P00366); assay: substrate activity with redox enzyme GDH (UV 340 nm and HPLC); conditions: for HPLC analysis of reduction by bovine GDH: 0.5 mM compound, 2 mM L-glutamate, 20 unit/ml GDH, 30 minutes, peaks confirmed by mass spectrometry
T2 construct: purchased Sigma-Aldrich (St. Louis, MO)
Protocol: (§1) Bovine glutamate dehydrogenase (GDH) and Leuconostoc mesenteroides glucose-6-phosphate dehydrogenase (G6PDH) were purchased from Sigma-Aldrich (St. Louis, MO) and used for determining the substrate activities of NAD^+ and S-NAD^+. To examine substrate activity with bovine GDH, 0.1 mM NAD^+ or S-NAD^+ was incubated with 1 mM L-glutamate and 0.1 unit/ml GDH in buffer containing 2 mM DTT, 50 mM Tris, pH 7.5 for 15 minutes at room temperature. To determine substrate activity with G6PDH, 0.5 mM NAD^+ or S-NAD^+ was incubated with 5 mM D-glucose 6-phosphate and 0.01 unit/ml G6PDH in buffer containing 5 mM MgCl2, 50 mM Tris, pH 7.5 for 15 minutes at room temperature. Formation of NADH and S-NADH were monitored by UV absorbance at 340 nm under kinetic mode using a NanoDrop 2000C spectrophotometer (Thermo Scientific, MA).
(§2) To examine the bovine GDH-catalyzed reactions, 0.5 mM NAD^+ or S-NAD^+ was incubated with 2 mM L-glutamate and 20 unit/ml GDH in buffer containing 2 mM DTT, 50 mM Tris, pH 7.5 for 30 minutes at room temperature, followed by HPLC analysis with detection of UV absorbance at 340 nm. To evaluate the L. mesenteroides G6PDH-catalyzed reactions, 0.5 mM NAD^+ or S-NAD^+ was incubated with 5 mM D-glucose 6-phosphate and 10 unit/ml G6PDH in buffer containing 5 mM MgCl2, 50 mM Tris, pH 7.5 for 30 minutes at room temperature, followed by HPLC analysis with detection of UV absorbance at 340 nm. The HPLC method used for analysis of reactions by GDH and G6PDH was the same as described above.

[4] = target: T3, Leuconostoc mesenteroides glucose-6-phosphate dehydrogenase (G6PDH) (Leuconostoc mesenteroides, UniProt P11411); assay: substrate activity with redox enzyme G6PDH (UV 340 nm and HPLC); conditions: 0.5 mM compound, 5 mM D-glucose 6-phosphate; for HPLC analysis of reduction by L. mesenteroides G6PDH: 10 unit/ml G6PDH, 30 minutes, peaks confirmed by mass spectrometry
T3 construct: purchased Sigma-Aldrich (St. Louis, MO)
Protocol: as §1, §2

[5] = target: T4, human NMNAT (Homo sapiens, UniProt Q9HAN9); assay: enzymatic conversion by purified NRK1 and NMNAT1 with ATP, HPLC: NMNAT step; conditions: 6 mM ATP, 5 μM NRK1 and 5 μM NMNAT1, RT; relative to NMN
T4 construct: made in house; host or cells: E. coli BL21 (DE3), pET-28a(+)
Protocol: (§3) FIGS. 4A-4D: HPLC analysis of enzymatic synthesis of S-NAD^+ by the purified NRK1 and NMNAT1 as measured by UV absorbance at 260 nm. 2 mM S—NR was incubated with 6 mM ATP and 5 μM NRK1 and 5 μM NMNAT1 at RT for 0 h (FIG. 4A), 0.5 h (FIG. 4B), 1 h (FIG. 4C), and 4 h (FIG. 4D), followed by HPLC analysis.
(§4) Purified S—NR (0.5 mg in the form of bromide salt) was incubated with 6 mM ATP, 5 uM of purified NRK1 and NMNAT1 at the final concentration of 2 mM at room temperature for overnight in the reaction buffer (50 mM Tris, 100 mM NaCl, 12 mM MgCl2, 1 mM DTT, and pH 7.5). After centrifugation at 4,000 g for 5 minutes, supernatants were analyzed by HPLC and the fraction containing S-NAD^+ (0.68 mg, 70%) were pooled and confirmed by both NMR and mass spectrometry. All analysis and purifications on HPLC were performed with a semipreparative C18 Kinetex column (5 μm, 100 Å, 150×10.0 mm, from Phenomenex Inc, Torrance, CA) using the following method, mobile phase A: 0.1% formic acid (aq); mobile phase B: 0.1% formic acid in methanol; flow rate: 2.0 ml/min; 0-2 min: 0-4% B, 2-4 min: 4-10% B; 4-6 min: 10-20% B; 6-9 min: 20% B; 9-12 min: 20-50% B; and 12-14 min: 50-0% B.
(§5) Human NRK1 and NMNAT1 were then expressed and purified from Escherichia coli (FIG. 1). In vitro biosynthesis of NAD^+ and S-NAD^+ from NR and S—NR, respectively, were carried out using purified NRK1 and NMNAT1. […]

[6] = tested on: human NRK; assay: enzymatic conversion by purified NRK1 and NMNAT1 with ATP, HPLC: NRK step; conditions: 2 mM S-NR, 6 mM ATP, 5 μM NRK1 and 5 μM NMNAT1, RT; relative to NR
Protocol: as §3, §4, §5

T3 sequence (P11411 whole entry): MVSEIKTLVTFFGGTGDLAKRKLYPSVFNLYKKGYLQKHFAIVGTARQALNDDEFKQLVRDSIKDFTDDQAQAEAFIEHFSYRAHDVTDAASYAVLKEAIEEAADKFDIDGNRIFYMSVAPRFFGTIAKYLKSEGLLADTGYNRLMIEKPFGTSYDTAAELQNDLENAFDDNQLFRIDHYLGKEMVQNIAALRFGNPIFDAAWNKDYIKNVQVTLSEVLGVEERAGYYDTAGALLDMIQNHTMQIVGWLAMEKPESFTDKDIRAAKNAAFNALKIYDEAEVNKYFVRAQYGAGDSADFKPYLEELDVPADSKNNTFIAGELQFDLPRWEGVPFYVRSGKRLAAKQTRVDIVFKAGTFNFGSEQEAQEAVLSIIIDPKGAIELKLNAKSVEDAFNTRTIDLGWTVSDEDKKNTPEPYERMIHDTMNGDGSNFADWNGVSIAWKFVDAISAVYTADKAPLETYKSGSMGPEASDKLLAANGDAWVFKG
T2 sequence (P00366 58-558): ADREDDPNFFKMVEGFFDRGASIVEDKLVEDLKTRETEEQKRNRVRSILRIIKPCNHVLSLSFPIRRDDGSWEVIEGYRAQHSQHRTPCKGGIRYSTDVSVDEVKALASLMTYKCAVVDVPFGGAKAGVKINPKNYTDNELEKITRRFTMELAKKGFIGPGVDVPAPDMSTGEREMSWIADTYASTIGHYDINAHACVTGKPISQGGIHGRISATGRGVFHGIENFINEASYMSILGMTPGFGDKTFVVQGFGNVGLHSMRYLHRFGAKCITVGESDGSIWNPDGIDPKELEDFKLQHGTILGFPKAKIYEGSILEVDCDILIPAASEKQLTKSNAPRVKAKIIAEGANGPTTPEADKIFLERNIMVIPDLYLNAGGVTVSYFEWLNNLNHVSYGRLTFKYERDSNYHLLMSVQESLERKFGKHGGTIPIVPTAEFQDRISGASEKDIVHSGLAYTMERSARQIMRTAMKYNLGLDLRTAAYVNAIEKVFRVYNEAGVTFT
T4 sequence (Q9HAN9 with tags, fused parts or gaps): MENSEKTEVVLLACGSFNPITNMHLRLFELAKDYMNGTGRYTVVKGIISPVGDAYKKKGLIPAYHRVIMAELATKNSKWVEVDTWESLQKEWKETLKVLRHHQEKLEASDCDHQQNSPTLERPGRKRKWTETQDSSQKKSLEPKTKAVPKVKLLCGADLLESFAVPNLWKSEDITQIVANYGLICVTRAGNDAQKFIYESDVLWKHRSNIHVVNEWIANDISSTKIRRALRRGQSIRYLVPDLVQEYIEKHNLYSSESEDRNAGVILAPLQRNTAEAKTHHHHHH

SMILES	fate of compound after overnight reaction with CD38 (HPLC) [2]	HPLC analysis of reduction by bovine GDH [3]	HPLC analysis of reduction by L. mesenteroides G6PDH [4]	further results
NC(=O)c1ccc[n+]([C@@H]2S[C@H](COP(=O)(O)OP(=O)([O-])OC[C@H]3O[C@@H](n4cnc5c(N)ncnc54)[C@H](O)[C@@H]3O)[C@@H](O)[C@H]2O)c1 (stereo in doubt) [S-NAD^+, 4′-thioribose NAD+]	still remained unchanged	enzyme-dependent formation of NADH and S-NADH peaks	enzyme-dependent formation of NADH and S-NADH peaks	slow-onset inhibition of CD38 ([1]; direct competition assays with extended incubation or preincubating CD38 with S-NAD+): no slow-onset inhibition was observed; reduction by bovine GDH monitored by UV absorbance at 340 nm ([3]; 0.1 mM compound, 1 mM L-glutamate, 0.1 unit/ml GDH, 15 minutes, room temperature): characteristic increases of UV absorbance at 340 nm; reduction by L. mesenteroides G6PDH monitored by UV absorbance at 340 nm ([4]; 0.01 unit/ml G6PDH, 15 minutes, room temperature): characteristic increases of UV absorbance at 340 nm
NC(=O)c1ccc[n+]([C@@H]2O[C@H](COP(=O)([O-])OP(=O)(O)OC[C@H]3O[C@@H](n4cnc5c(N)ncnc54)[C@H](O)[C@@H]3O)[C@@H](O)[C@H]2O)c1 [NAD^+, Nicotinamide adenine dinucleotide, reference compound]	completely consumed	enzyme-dependent formation of NADH and S-NADH peaks	enzyme-dependent formation of NADH and S-NADH peaks	
NC(=O)c1ccc[n+]([C@@H]2O[C@H](COP(=O)([O-])OP(=O)(O)OC[C@H]3O[C@@H](n4cnc5c(=O)[nH]c(N)nc54)[C@H](O)[C@@H]3O)[C@@H](O)[C@H]2O)c1 [NGD^+, nicotinamide guanine dinucleotide, reference compound]				Km ([1]; 8.3 nM recombinant CD38, 20 mM MES pH 6.5, fluorescence at 410 nm): 8.5 ± 0.6 µM
NC(=O)c1ccc[n+](C2SC(COP(=O)([O-])O)C(O)C2O)c1 (stereo not drawn) [S-NMN, 4′-thioribose nicotinamide mononucleotide]				effect of sulfur substitution on substrate activity for human NMNAT [5]: no effect
NC(=O)c1ccc[n+]([C@@H]2S[C@H](CO)[C@@H](O)[C@H]2O)c1.[Br-] [S—NR, 3-carbamoyl-1-((2R,3R,4S,5R)-3,4-dihydroxy-5-(hydroxymethyl)tetrahydrothiophen-2-yl)pyridin-1-ium]				effect of sulfur substitution on substrate activity for human NRK [6]: no effect
